Tests used:
Type in all cases: cell-based, human
TCC 4.2E1 [1] = experiment: Cytolysis assay (4-hour 51Cr release), CD4 TCC 4.2E1; conditions: E:T 20:1
Protocol: (§1) Cytolysis assays were performed in triplicate using 4-hour [^51]Cr release as described (D. M. Koelle et al., 1993, J. Clin. Invest., 91:961-968). […] W. Kwok et al., 1996,J. Exp. Med., 183:1253-1258). The effector to target ratio was 20:1. Spontaneous release was less than 28%.

TCC 4.2E1 [2] = experiment: T-cell proliferation ([3H]thymidine incorporation), TCC 4.2E1; conditions: FIG. 3; peptides used at 3 μM; autologous EBV-LCL APC
Protocol: (§2) Triplicate proliferation assay wells contained 10^4 cloned T-cells, 10^5 irradiated (3300 rad) PBMC or 2.5×10^4 irradiated (8000 rad) EBV-LCL as antigen presenting cells (APC), and antigen in 200 μl T-cell media (D. M. Koelle et al., 1997, Human. Immunol., 53:195-205) in 96-well U-bottom plates. When heat-killed bacteria were used as antigen, the equivalent of 10^5 cfu/well (prior to inactivation) was added and gentamicin (20 μg/ml) was included. After 72 hours, 1 μCi/well ^[3]H thymidine was added for 18 hours, cells were harvested, and incorporation of thymidine evaluated by liquid scintillation counting. Standard deviations were less than 10% of the mean values. Results are reported as mean cpm or as delta cpm=mean cpm for experimental antigen minus mean cpm for control antigen. Control antigen was mock-infected cell lysate for whole viral antigens and pUEX2-derived β-galactosidase for recombinant protein preparations. To determine the reactivity of bulk-cultured lesion-derived T-cells, fusion proteins or control β-galactosidase were used at 10 μg/ml. […]

lesion-derived T cells = experiment: Recognition of ICP0 epitopes by lesion-derived T cells; conditions: 743-751: CD8+ T cells, HLA allele B*0702
Excerpt: The recognition event involves HLA allele B*0702, which is relatively common (approximately 10%) in the human population.

TCC RH.13 [3] = experiment: Cytolysis assay (4-hour 51Cr release), CD4 TCC RH.13; conditions: HSV-2 infected or 1 μM peptide, E:T 20:1
Protocol: as §1

TCC RH.13 [4] = experiment: T-cell proliferation, TCC RH.13
Protocol: (§3) Triplicate proliferation assay wells contained 10^4 cloned T-cells, 10^5 irradiated (3300 rad) PBMC or 2.5×10^4 irradiated (8000 rad) EBV-LCL as antigen presenting cells (APC), and antigen in 200 μl T-cell media (D. M. Koelle et al., 1997, Human. Immunol., 53:195-205) in 96-well U-bottom plates. When heat-killed bacteria were used as antigen, the equivalent of 10^5 cfu/well (prior to inactivation) was added and gentamicin (20 μg/ml) was included. After 72 hours, 1 μCi/well ^[3]H thymidine was added for 18 hours, cells were harvested, and incorporation of thymidine evaluated by liquid scintillation counting. Standard deviations were less than 10% of the mean values. Results are reported as mean cpm or as delta cpm=mean cpm for experimental antigen minus mean cpm for control antigen. Control antigen was mock-infected cell lysate for whole viral antigens and pUEX2-derived β-galactosidase for recombinant protein preparations. To determine the reactivity of bulk-cultured lesion-derived T-cells, fusion proteins or control β-galactosidase were used at 10 μg/ml. To determine HLA restricting loci, HLA DR-specific mAb L243 (V. G. Preston et al., 1978, J. Virol., 28:499-517), HLA DP-specific mAb B7.21 (A. J. Watson et al., 1983, Nature, 304:358-360), or HLA DQ-specific mAb SpV-L3 (H. Spits et al., 1984, Eur. J. Immunol., 14:299-304) were used as described (D. M. Koelle et al., 1994, J. Virol. 68:2803-2810).
Three epitopes within VP16, all HSV-2 type-specific were previously identified (K. R. Jerome et al., 1998, J. Virol., 72:436-441), and proliferative responses to full-length VP16 in bulk cultures of genital HSV-2 lesion-infiltrating lymphocytes from four of seven (57%) patients were detected (D. M. Koelle et al., 1998, J. Clin. Invest., 101:1500-09). Additional peptide epitopes were sought within VP16 by two strategies. The first strategy involved screening panels of clones recovered from lesion vesicle fluid for reactivity with recombinant VP16 of HSV-2 followed by epitope mapping with peptides. […]

TCC KM.7 [5] = experiment: Cytolysis assay (4-hour 51Cr release), CD4 TCC KM.7; conditions: HSV-2 infected or 1 μM peptide, E:T 20:1
Protocol: as §1

TCC KM.7 [6] = experiment: T-cell proliferation, TCC KM.7; conditions: VP16 1-492 at 1 μg/ml, β-gal-VP16 180-492 at 1:1,000, peptides at 1 μM
Protocol: as §2, with “preparations.” for “preparations. To determine the reactivity of bulk-cultured lesion-derived T-cells, fusion proteins or control β-galactosidase were used at 10 μg/ml.”
(§4) Three epitopes within VP16, all HSV-2 type-specific were previously identified (K. R. Jerome et al., 1998, J. Virol., 72:436-441), and proliferative responses to full-length VP16 in bulk cultures of genital HSV-2 lesion-infiltrating lymphocytes from four of seven (57%) patients were detected (D. M. Koelle et al., 1998, J. Clin. Invest., 101:1500-09). […]

TCC ESL4.34 [7] = experiment: T-cell proliferation, TCC ESL4.34; conditions: VP16 1-492 at 1 μg/ml, β-gal-VP16 180-492 at 1:1,000, peptides at 1 μM
Protocol: as §3

TCC ESL4.34 [8] = experiment: Cytolysis assay (4-hour 51Cr release), CD4 TCC ESL4.34; conditions: HSV-2 infected or 1 μM peptide, E:T 10:1
Protocol: Cytolysis assays were performed in triplicate using 4-hour [^51]Cr release as described (D. M. Koelle et al., 1993, J. Clin. Invest., 91:961-968). […] W. Kwok et al., 1996,J. Exp. Med., 183:1253-1258). […] Spontaneous release was less than 28%.

TCC ESL3.334 [9] = experiment: T-cell proliferation, TCC ESL3.334; conditions: VP16 1-492 at 1 μg/ml, β-gal-VP16 180-492 at 1:1,000, peptides at 1 μM
Protocol: as §3

TCC ESL3.334 [10] = experiment: Cytolysis assay (4-hour 51Cr release), CD4 TCC ESL3.334; conditions: HSV-2 infected or 1 μM peptide, E:T 20:1
Protocol: as §1

TCC 1A.B.25 [11] = experiment: T-cell proliferation, TCC 1A.B.25; conditions: VP16 1-492 at 1 μg/ml, β-gal-VP16 180-492 at 1:1,000, peptides at 1 μM
Protocol: as §3

TCC 1A.B.25 [12] = experiment: Cytolysis assay (4-hour 51Cr release), CD4 TCC 1A.B.25; conditions: HSV-2 infected or 1 μM peptide, E:T 20:1
Protocol: as §1

TCC BM.17 = experiment: T-cell proliferation, TCC BM.17; conditions: VP16 1-492 at 1 μg/ml, β-gal-VP16 180-492 at 1:1,000, peptides at 1 μM
Protocol: as §2, with “preparations.” for “preparations. To determine the reactivity of bulk-cultured lesion-derived T-cells, fusion proteins or control β-galactosidase were used at 10 μg/ml.”
as §4

TCC SB.17 = experiment: T-cell proliferation, TCC SB.17; conditions: VP16 1-492 at 1 μg/ml, β-gal-VP16 180-492 at 1:1,000, peptides at 1 μM
Protocol: as §2, with “preparations.” for “preparations. To determine the reactivity of bulk-cultured lesion-derived T-cells, fusion proteins or control β-galactosidase were used at 10 μg/ml.”
as §4

[13] = system: bulk cultures of lesion-infiltrating T-cells; experiment: Reactivity of bulk cultures of lesion-infiltrating T-cells with HSV antigens; conditions: four biopsies, day 5 of a buttock recurrence of HSV-2, patient 1; fusion proteins at 10 μg/ml
Protocol: as §2

[14] = allogeneic mismatched EBV-LCL targets

## GGPVGAGGRSHAPPARTPKMTR (GGPVGAGGRSHAPARTPKMTR) [VP22 105-126]
TCC 4.2E1 [1]; allogeneic mismatched EBV-LCL targets, HSV-2 infected or 1 μM peptide
  percent specific release: −1.7%
TCC 4.2E1 [1]; autologous EBV-LCL targets, HSV-2 infected or loaded with 1 μM peptide
  percent specific release: 44.2%
TCC 4.2E1 [2]
  stimulation of TCC 4.2E1 by overlapping peptides: stimulatory

## ICP0 743-751: amino acids 743-751 of ICP0 (QGTLVGALD; UniProt P08393 743-751, looked up, fragment)
lesion-derived T cells
  recognition by lesion-derived T cells: specific recognition

## VP16 185-197: HSV-2 VP16 (UL48) peptide, amino acids 185-197
TCC RH.13 [3]; [14]
  percent specific release: 0.3%
TCC RH.13 [3]; autologous EBV-LCL targets
  percent specific release: 55.2%
TCC RH.13 [4]; TCC RH.13, VP16 1-492 at 1 μg/ml, β-gal-VP16 180-492 at 1:1,000, peptides at 1 μM
  delta cpm [3H] thymidine incorporation compared to media: 55,614 cpm
TCC RH.13 [4]; epitope mapping with peptides
  stimulation of TCC RH.13 by VP16 peptides: stimulatory

## VP16 209-221: HSV-2 VP16 (UL48) peptide, amino acids 209-221
TCC KM.7 [5]; [14]
  percent specific release: 4.3%
TCC KM.7 [5]; autologous EBV-LCL targets
  percent specific release: 43.6%
TCC KM.7 [6]
  delta cpm [3H] thymidine incorporation compared to media: 10,075 cpm

## VP16 393-405: previously reported HSV-2 VP16 peptide epitope, amino acids 393-405 (LVAPRMSFLSAGQ; UniProt P68336 393-405, looked up, fragment)
TCC ESL4.34 [7]
  delta cpm [3H] thymidine incorporation compared to media: 95,942 cpm
TCC ESL4.34 [8]; [14]
  percent specific release: 0.6%
TCC ESL4.34 [8]; autologous EBV-LCL targets
  percent specific release: 10.4%

## VP16 430-444: previously reported HSV-2 VP16 peptide epitope, amino acids 430-444 (EEVDMTPADALDDFD; UniProt P68336 430-444, looked up, fragment)
TCC ESL3.334 [9]
  delta cpm [3H] thymidine incorporation compared to media: 27,283 cpm
TCC ESL3.334 [10]; [14]
  percent specific release: 0.3%
TCC ESL3.334 [10]; autologous EBV-LCL targets
  percent specific release: 33.6%

## VP16 431-440: previously reported HSV-2 VP16 peptide epitope, amino acids 431-440 (EVDMTPADAL; UniProt P68336 431-440, looked up, fragment)
TCC 1A.B.25 [11]
  delta cpm [3H] thymidine incorporation compared to media: 38,664 cpm
TCC 1A.B.25 [12]; [14]
  percent specific release: 2.1%
TCC 1A.B.25 [12]; autologous EBV-LCL targets
  percent specific release: 42.2%

B1: β-gal-VP16 180-492: β-galactosidase fusion protein with HSV-2 VP16 180-492 (protein)
chain: YLRASVRQLHRQAHMRGRNRDLREMLRTTIADRYYRETARLARVLFLHLYLFLSREILWAAYAEQMMRPDLFDGLCCDLESWRQLACLFQPLMFINGSLTVRGVPVEARRLRELNHIREHLNLPLVRSAAAEEPGAPLTTPPVLQGNQARSSGYFMLLIRAKLDSYSSVATSEGESVMREHAYSRGRTRNNYGSTIEGLLDLPDDDDAPAEAGLVAPRMSFLSAGQRPRRLSTTAPITDVSLGDELRLDGEEVDMTPADALDDFDLEMLGDVESPSPGMTHDPVSYGALDVDDFEFEQMFTDAMGIDDFGG
modifications: left off: large carriers
TCC 1A.B.25 [11]
  delta cpm [3H] thymidine incorporation compared to media: 41,123 cpm
TCC ESL3.334 [9]
  delta cpm [3H] thymidine incorporation compared to media: 16,434 cpm
TCC BM.17
  delta cpm [3H] thymidine incorporation compared to media: 45,958 cpm
TCC SB.17
  delta cpm [3H] thymidine incorporation compared to media: 12,178 cpm

B2: VP22 105-190: fusion protein containing VP22 amino acids 105-190 (protein)
chain: GGPVGAGGRSHAPPARTPKMTRGAPKASATPATDPARGRRPAQADSAVLLDAPAPTASGRTKTPAQGLAKKLHFSTAPPSPTAPWT
modifications: left off: large carriers
[13]
  reactivity of bulk lesion-infiltrating T-cell cultures: showed reactivity

— patent publication US6814969B2, “Immunologically significant herpes simplex virus antigens and methods for using same” (University of Washington, priority 2001, dated 2004)
